ChEMBL document CHEMBL2321663, “Alkaloids from Sri Lankan curry-leaf (Murraya koenigii) display melanogenesis inhibitory activity: structures of karapinchamines A and B” (Bioorg Med Chem, 2013)

Experiments:
[1] = Inhibition of theophylline-induced melanogenesis in mouse B16-4A5 cells at 1 uM after 72 hrs by spectrophotometric analysis relative to control; format: functional; settings: B16-4A5, 72 h
[2] = biological target: T1, Tyrosinase (Agaricus bisporus) (UniProt O42713); experiment: Inhibition of mushroom tyrosinase using L-DOPA as substrate after at 10 uM after 5 mins relative to control
T1 sequence (whole entry): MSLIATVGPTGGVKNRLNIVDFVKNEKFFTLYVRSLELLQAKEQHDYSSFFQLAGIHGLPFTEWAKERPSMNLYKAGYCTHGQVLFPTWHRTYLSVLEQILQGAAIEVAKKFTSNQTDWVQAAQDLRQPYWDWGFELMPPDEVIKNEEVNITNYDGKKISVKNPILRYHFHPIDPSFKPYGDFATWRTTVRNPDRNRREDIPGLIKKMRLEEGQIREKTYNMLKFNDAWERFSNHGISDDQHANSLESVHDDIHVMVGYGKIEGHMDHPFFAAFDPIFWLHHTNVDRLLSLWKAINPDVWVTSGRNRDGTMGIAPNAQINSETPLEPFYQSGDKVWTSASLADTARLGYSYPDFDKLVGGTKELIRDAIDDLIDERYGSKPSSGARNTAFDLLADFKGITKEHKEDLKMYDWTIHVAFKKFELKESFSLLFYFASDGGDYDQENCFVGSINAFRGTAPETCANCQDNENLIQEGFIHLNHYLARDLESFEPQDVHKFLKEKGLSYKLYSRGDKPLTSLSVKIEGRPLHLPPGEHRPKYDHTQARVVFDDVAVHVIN

[3] = Inhibition of theophylline-induced melanogenesis in mouse B16-4A5 cells after 72 hrs by spectrophotometric analysis relative to control; format: functional, cell-based
[4] = Inhibition of theophylline-induced melanogenesis in mouse B16-4A5 cells at 30 uM after 72 hrs by spectrophotometric analysis relative to control; format: functional; settings: B16-4A5, 72 h
[5] = Inhibition of theophylline-induced melanogenesis in mouse B16-4A5 cells at 3 uM after 72 hrs by spectrophotometric analysis relative to control; format: functional; settings: B16-4A5, 72 h
[6] = biological target: T1, Tyrosinase (Agaricus bisporus); experiment: Inhibition of mushroom tyrosinase using L-DOPA as substrate after at 3 uM after 5 mins relative to control
[7] = biological target: T1, Tyrosinase (Agaricus bisporus); experiment: Inhibition of mushroom tyrosinase using L-DOPA as substrate after at 1 uM after 5 mins relative to control
[8] = biological target: T1, Tyrosinase (Agaricus bisporus); experiment: Inhibition of mushroom tyrosinase using L-DOPA as substrate after at 30 uM after 5 mins relative to control
[9] = Inhibition of theophylline-induced melanogenesis in mouse B16-4A5 cells at 10 uM after 72 hrs by spectrophotometric analysis relative to control; format: functional; settings: B16-4A5, 72 h
[10] = Cytotoxicity against mouse theophylline-induced B16-4A5 cells assessed as cell viability at 1 uM after 72 hrs by WST8 assay relative to control; format: cell-based; settings: read-out: Activity
[11] = Cytotoxicity against mouse theophylline-induced B16-4A5 cells assessed as cell viability at 10 uM after 72 hrs by WST8 assay relative to control; format: cell-based; settings: read-out: Activity
[12] = biological target: T1, Tyrosinase (Agaricus bisporus); experiment: Inhibition of mushroom tyrosinase using L-DOPA as substrate after at 100 uM after 5 mins relative to control
[13] = Cytotoxicity against mouse theophylline-induced B16-4A5 cells assessed as cell viability at 3 uM after 72 hrs by WST8 assay relative to control; format: cell-based; settings: read-out: Activity
[14] = Cytotoxicity against mouse theophylline-induced B16-4A5 cells assessed as cell viability at 30 uM after 72 hrs by WST8 assay relative to control; format: cell-based; settings: read-out: Activity
[15] = Inhibition of theophylline-induced melanogenesis in mouse B16-4A5 cells at 300 uM after 72 hrs by spectrophotometric analysis relative to control; format: functional; settings: B16-4A5, 72 h
[16] = Inhibition of theophylline-induced melanogenesis in mouse B16-4A5 cells at 100 uM after 72 hrs by spectrophotometric analysis relative to control; format: functional; settings: B16-4A5, 72 h
[17] = Inhibition of theophylline-induced melanogenesis in mouse B16-4A5 cells at 1000 uM after 72 hrs by spectrophotometric analysis relative to control; format: functional; settings: B16-4A5, 72 h

Row | SMILES | inhibition [2] [%] | IC50 [3] [µM] | inhibition [6] [%] | inhibition [7] [%] | inhibition [8] [%] | inhibition [12] [%] | inhibition at 1 µM [1] [%] | inhibition at 30 µM [4] [%] | inhibition at 3 µM [5] [%] | inhibition at 10 µM [9] [%] | viability at 72 h, 1 µM [10] [%] | viability at 72 h, 10 µM [11] [%] | viability at 72 h, 3 µM [13] [%] | viability at 72 h, 30 µM [14] [%] | inhibition at 300 µM [15] [%] | inhibition at 100 µM [16] [%] | inhibition at 1000 µM [17] [%]
1 | Oc1cccc2[nH]c3ccccc3c12 | 0.5 | 13.5 | 0.3 | 0.4 | 0.9 | 3.3 | 24.9 | 66.9 | 32.9 | 36.1 | 101 | 104 | 100 | 131 | – | – | –
2 | OC[C@H]1O[C@@H](Oc2ccc(O)cc2)[C@H](O)[C@@H](O)[C@@H]1O [ARBUTIN] | – | 174 | – | – | – | – | – | 20.4 | – | – | – | – | – | – | 61.5 | 38.1 | 83.7
3 | c1ccc2c(c1)[nH]c1ccccc12 [CARBAZOLE] | -2.2 | > 100 | -1.8 | 1 | 1.7 | 0.1 | 31.3 | 33.8 | 33.5 | 36.8 | 108 | 105 | 108 | 94.2 | – | – | –
4 | COc1ccc2c([nH]c3cc(O)c(C)cc32)c1C/C=C(\C)CCC=C(C)C [EUCHRESTINE B] | -4.3 | 4.1 | -4.4 | -6.5 | -6.4 | -1.1 | 18.2 | – | 40.6 | 74.2 | 105 | 83.7 | 102 | 1.9 | – | – | –
5 | CC(C)=CCC/C(C)=C/Cc1c(O)ccc2[nH]c3ccc(C)cc3c12 [EUSTIFOLINE C] | 2.3 | 8.3 | 2.7 | 1 | 5.9 | 16.1 | 19.7 | – | 25.2 | 55.9 | 104 | 79.2 | 96.5 | 9.9 | – | – | –

The next lines start with results.

Row | inhibition [2] [%] | IC50 [3] [µM] | inhibition [6] [%] | inhibition [7] [%] | inhibition [8] [%] | inhibition [12] [%] | SMILES | inhibition at 1 µM [1] [%] | inhibition at 30 µM [4] [%] | inhibition at 3 µM [5] [%] | inhibition at 10 µM [9] [%] | viability at 72 h, 1 µM [10] [%] | viability at 72 h, 10 µM [11] [%] | viability at 72 h, 3 µM [13] [%] | viability at 72 h, 30 µM [14] [%] | inhibition at 300 µM [15] [%] | inhibition at 100 µM [16] [%] | inhibition at 1000 µM [17] [%]
6 | -1.1 | 2.2 | -0.7 | 7.4 | -0.3 | -3.4 | CC(C)=CCCC1(C)C=Cc2c(ccc3c2[nH]c2ccc(C)cc23)O1 (centres undefined) | 25.9 | 78.4 | 60 | 85.2 | 110 | 103 | 117 | 63.9 | – | – | –
7 | -2.8 | 3.8 | -2.8 | -1 | 2.7 | -0.8 | COc1cccc2c1[nH]c1c3c(c(C)cc12)OC(C)(CCC=C(C)C)C=C3 (centres undefined) | 6.8 | – | 40.4 | 71.8 | 101 | 73.8 | 97.3 | 46.3 | – | – | –
8 | 0.1 | 15.7 | 0.1 | 0.1 | 0.9 | 4.2 | COc1ccc2c(c1)[nH]c1c3c(c(C)cc12)O[C@](C)(CCC=C(C)C)C=C3 | 10.9 | 58.3 | 8.7 | 40.8 | 105 | 94.9 | 98.7 | 66.3 | – | – | –
9 | 3.5 | 2.9 | -0.6 | -1.3 | 15.3 | 20.2 | Cc1cc2c3ccc(O)cc3n3c2c2c1O[C@@]1(C)CC[C@H]([C@H]2C1)C3(C)C (relative stereo) | 26.9 | 74.3 | 50.8 | 66 | 101 | 76.8 | 94.4 | 71.1 | – | – | –
10 | -0.1 | 1.2 | -1 | 0.7 | 1 | 4.3 | COc1ccc2[nH]c3c4c(c(C)cc3c2c1)OC(C)(C)C=C4 [KOENIMBINE] | 42.5 | – | 77 | 86.2 | 114 | 66.6 | 92.4 | 37.9 | – | – | –
11 | -0.4 | 1.4 | -3.2 | -1.3 | 2.7 | 6.2 | CC(C)=CCCC1(C)C=Cc2c(c(C)cc3c2[nH]c2ccccc23)O1 (centres undefined) [MAHANIMBINE] | 43.3 | – | 63.9 | – | 94.3 | 34.4 | 68.7 | 35.1 | – | – | –
